# Source: patent US20240342244A1, “Isthmin Protein Therapeutics for the Treatment of Non-Alcoholic Fatty Liver Disease” (The Board of Trustees of the Leland Stanford Junior …, priority 2021, published 2024)
# Key:
# primary mouse adipocytes = experiment: 2-deoxy-3H-glucose uptake in primary mouse adipocytes; type: cell-based
# Procedure: (§1) Mouse and human pre-adipocytes culture and differentiation. Inguinal fat pads from 4-8 week old C57BL/6J male and female mice were dissected and mechanically digested for 10 min using spring scissors. Digested tissues were incubated in WAT isolation buffer (10 ml PBS, 2.4 U/ml dispase II (#04942078001, Roche), 10 mg/ml collagenase D (#11088858001, Roche) at 37° C. for 45 min. 20 mL growth media was added and the tissue suspension was filtered through a 100-μm cell strainer and centrifuged at 600×g for 5 min. The cell pellets were resuspended in 20 mL growth media, filtered through a 40-μm cell strainer, centrifuged at 600×g for 5 min, resuspended in 10 mL growth media, and plated in 10-cm collagen-coated dishes. The cells were cultured in growth media (DMEM/F-12 Glutamax, Thermo Fisher Scientific #10565018) supplemented with 10% fetal bovine serum. Two days post-confluency, differentiation was induced with growth media containing 1 μM rosiglitazone, 0.5 mM isobutylmethylxanthine, 1 μM dexamethasone, 5 μg/mL insulin. After two days, cells were re-fed with growth media containing 1 μM rosiglitazone and 5 μg/mL insulin. Cells were fully differentiated after 6-8 days. For ISM1 knockdown or overexpression in primary adipocytes using adenovirus, 500 μL crude virus was mixed with 500 μL fresh growth media containing 1 μM rosiglitazone and 5 μg/mL insulin was added to each well at day 2 of differentiation. At day 4, virus-containing media was removed and 500 μL fresh growth media without stimulators was added to each well. SGBS cells were differentiated as described previously (Fischer-Posovszky et al., 2008; Wabitsch et al., 2001). Briefly, cells were cultured in growth media DMEM/F-12 Glutamax, supplemented with 10% fetal bovine serum, 33 uM biotin, and 17 uM pantothenate. Two days post confluency, differentiation was induced with serum-free DMEM/F12 media containing 33 uM biotin, 17 uM pantothenate, 0.01 mg/ml transferrin, 20 nM insulin, 100 nM cortisol, 0.2 nM triiodothyronine, 25 nM dexamethasone, 0.25 mM isobutyl methylxanthine, and 2 μM rosiglitazone. After four days, cells were re-fed with growth media containing 0.01 mg/ml transferrin 20 nM insulin, 100 nM cortisol, 0.2 nM triiodothyronine. Cells were fully differentiated after day 8-10.
# (§2) Glucose uptake. Glucose uptake was performed as previously described (You et al., 2017). Briefly, 2-Deoxy-d-[2,6-3H]-glucose was purchased from PerkinElmer NEN radiochemicals. Fully differentiated adipocytes were washed with KRH buffer and starved in 0.5% BSA in KRH buffer for 4 h. Indicated concentrations of insulin or ISM1 were added at indicated time points. Cells were treated with a mixture of 500 μM 2-deoxy-D-glucose and 1.71 μCimL^−1 2-Deoxy-D-[1,2-3H (N)]-glucose for another 10 min followed by three washes using ice cold KRH buffer containing 200 mM glucose. The passive glucose uptake in the presence of 50 uM CytoB was less than 12% of the total glucose uptake. Cells were solubilized in 1% SDS and radioactivity was measured by liquid scintillation counting.
# pAKT^S473 [1] = experiment: Signaling induced by ISM1 or insulin in 3T3-F442A cells pre-treated with inhibitors; type: cell-based; conditions: for effect of inhibitor on pAKT^S473 phosphorylation induced by ISM1 and insulin: ISM1 100 nM or insulin 100 nM, 3T3-F442A cells
# Procedure: (§3) Western blots and molecular analyses. For western blotting, homogenized tissues or whole-cell lysates, samples were lysed in RIPA buffer containing protease inhibitor cocktail (Roche) and phosphatase inhibitor cocktail (Roche). Cell lysates were centrifuged at 14,000×g for 15 min and supernatants were prepared in 4×LDS Sample Buffer (Invitrogen) and separated by SDS-PAGE and transferred to Immobilon 0.45 μm membranes (Millipore). For Western blotting of plasma samples, 1 μl of plasma was prepared in 2× sample buffer (Invitrogen) with reducing agent, boiled, and analyzed using Western blot against indicated antibody. Protein kinase array (R&D systems ARY003B) was performed according to the manufacturers' description. All antibodies used in this paper are described in STAR methods.
# DIO mice = experiment: Therapeutic ISM1, Metformin or combined administration for 21 days in DIO mice; type: in vivo, mouse; conditions: daily for 21 days; compared with vehicle
# Procedure: Therapeutic ISM1 recombinant protein administration in vivo. All pharmacologic studies using recombinant ISM1 protein were performed in mice with established diet-induced obesity or non-alcoholic fatty liver disease (NAFLD). For all experiments, male C57BL/6J mice purchased from Jax were fed either a high-fat diet (#D12492, Research Diets) or a NAFLD diet (#D09100310, Research Diets) prior to ISM1 protein injections. In all experiments, mice were mock injected with saline for three days prior to protein or drug injections to prevent stress-induced weight loss. Mice were I.P. injected with vehicle (saline) or indicated doses of ISM1 protein diluted in saline. For the 14-day experiments in NAFLD mice, 7-weeks old mice were fed with NAFLD diet for 3 weeks and then mock injected with saline for 3 days prior to protein injections. The induction of lipid accumulation with NAFLD diet was verified by the significant increase in hepatic lipid levels compared with mice on chow diet at the same time point. NAFLD mice were then daily I.P. injected with either vehicle (saline containing 5% DMSO and 10% Kolliphor) or indicated doses of ISM1 protein (500 μg/kg or 5 mg/kg) or with FXR agonist (30 mg/kg, GW4064, Sigma-Aldrich, #G5172) diluted in vehicle (saline containing 5% DMSO and 10% Kolliphor). For the 21-day experiments in HFD mice, mice were mock injected with saline for three days prior to protein injections. Mice were then daily I.P. injected with either vehicle (saline) or 5 mg/kg of ISM1 protein diluted in saline. Metformin (100 mg/kg, Sigma, #317240) was diluted in saline and daily administered by oral gavage. All groups received control injections by I.P. and oral gavage. At the end of the experiments, mice and tissue weights were recorded. Tissues and plasma were collected and frozen for further analyses.
# Glucose tolerance and insulin tolerance tests. For glucose tolerance tests, mice were fasted overnight and I.P. injected with glucose at 2 g/kg body weight. Blood glucose levels were measured at 0, 15, 30, 45, 60, 90 and 120 mins. For insulin tolerance tests, mice were fasted for 2 h, and I.P. injected with 0.75 U/kg insulin. Blood glucose levels were measured at 0, 15, 30, 45, 60, 90 and 120 mins.
# human SGBS adipocytes = experiment: 2-deoxy-3H-glucose uptake in human SGBS adipocytes; type: cell-based
# Procedure: as §1, §2
# pAKT^S473 [2] = experiment: pAKT S473 signaling in 3T3-F442A cells (phosphokinase array, western blot); type: cell-based; conditions: 5 min
# Procedure: as §3
# [3] = test system: differentiated 3T3-L1 adipocytes; experiment: 2-deoxy-3H-glucose uptake in differentiated 3T3-L1 adipocytes; type: cell-based; conditions: 1 h
# Procedure: as §2
# AML12 hepatocytes = experiment: Lipogenesis assay (3H-acetate incorporation into lipids) in AML12 hepatocytes; type: cell-based, mouse; conditions: 50 nM insulin; 24 h
# Procedure: Lipogenesis Assay. Primary hepatocytes or AML12 hepatocytes were washed twice with warm PBS and starved in serum-free DMEM overnight. Indicated concentrations of insulin with or without ISM1 were added at the same time. After 24 h, a mixture of 10 μM cold acetate and 2 μCi [3H]-Acetate (#NET003H005MC, PerkinElmer) was added to each well and cells were incubated for another 4 hr. Cells were washed with PBS twice and lysed using 0.1 N hydrogen chloride. Lipids were extracted by 2:1 chloroform-methanol (v/v). After centrifugation at 3000×g for 10 min, the lower phase was transferred to scintillation vials and radioactivity was measured by liquid scintillation counting.
# SREBP1c, FAS, ACC = experiment: Lipogenic protein and gene expression in AML12 hepatocytes; type: cell-based, mouse; conditions: 50 nM insulin, with or without ISM1; 24 h
# Procedure: (§4) Gene expression analysis. Total RNA from cultured cells or tissues was isolated using TRIzol (Thermo Fischer Scientific) and Rneasy mini kits (QIAGEN). RNA was reverse transcribed using the ABI high capacity cDNA synthesis kit. For qRT-PCR analysis, cDNA, primers and SYBR-green fluorescent dye (ABI) were used. Relative mRNA expression was determined by normalization with Cyclophilin levels using the ΔΔCt method.
# as §3
# [4] = test system: IGF-I-Receptor β Tyr1135/1136 or Insulin receptor Tyr1150/1151; experiment: Western blot of phosphorylated insulin and IGF receptors in 3T3-F442A cells; type: cell-based; conditions: 100 nM; 2 minutes
# Procedure: as §3
# [5] = test system: pAKT^T308, S6^S235/S236, PRAS40^Thr246, ERK1/2, PKA, PDK1, GSK3β; experiment: Time-course western blot of intracellular signaling pathways in 3T3-F442A cells; type: cell-based; conditions: 100 nM; time course
# Procedure: as §3
# pTyr = experiment: Western blot of pTyr levels; type: cell-based; conditions: 100 nM; 2 minutes
# Procedure: as §3
# GLUT4 = GLUT4 translocation to the plasma membrane in primary adipocytes (immunostaining, fractionation); type: cell-based, mouse; conditions: 100 nM
# Procedure: Biochemical analyses. Plasma insulin levels were measured using the Ultra-Sensitive Mouse Insulin ELISA kit (Crystal Chem Inc #90080). Plasma triglycerides were measured with Infinity triglyceride measurement kit (Thermo #TR22421) and tissue triglycerides were measured with a Triglyceride Colorimetric Assay Kit (Cayman #10010303). Lipolysis was measured in day 5 differentiated adipocytes after 4 hours of protein treatment using a glycerol release assay according to the protocol provided by the manufacturer (Abcam #ab133130). Plasma membrane protein extractions were performed according to the manufacturer's protocol (Abcam #ab65400).
# Immunocytochemistry. Primary mouse preadipocytes were seeded onto collagen-coated 22 mm×22 mm coverslips and differentiated using the method above. On day 8, differentiated adipocytes were washed with PBS and starved in 0.5% BSA in KRH buffer (50 mM HEPES, 136 mM NaCl, 1.25 mM MgSO4, 1.25 mM CaCl2, 4.7 mM KCl, pH 7.4) for 3.5 h. Cells were treated with insulin or ISM1 for 30 min, followed by three washes with cold PBS. Cells were fixed with 4% PFA in PBS for 15 min at room temperature. After blocking with 2% BSA, 5% goat serum, 0.2% Triton-X in PBS for 1 hr, cells were incubated with diluted primary antibody at 4° C. overnight. The next day, cells were washed and incubated with secondary antibody on ice for 1 hr. Cells were imaged using confocal microscope (Leica TCS SP8). Hoechst (#33342, thermo fisher) was used as counterstain.
# srebp1c = experiment: Lipogenic gene and SREBP-1c protein expression in primary adipocytes; type: cell-based, mouse; conditions: primary adipocytes
# Procedure: as §4, §3
# [6] = pre-treated for 30 min, ISM1 or insulin 100 nM
compound,measurement,setting,value
"C=C1[C@@H](C)[C@H]2[C@H](Cc3ccccc3)NC(=O)[C@]23OC(=O)/C=C/[C@H](O)CCC[C@@H](C)C/C=C/[C@H]3[C@@H]1O [CytoB, reference compound]",passive glucose uptake as share of total glucose uptake,primary mouse adipocytes; 50 uM CytoB,less than 12%
COc1ccccc1N1CCN(c2ncnc3n[nH]c(Br)c23)CC1 [DG2],effect of inhibitor on S6^S235/S236,pAKT^S473 [1]; [6],dose-dependently inhibited
same,pAKT in presence of inhibitor,pAKT^S473 [1]; [6],remained intact
CCOc1cn(-c2ccc(F)cc2C)nc1C(=O)Nc1ccc(Oc2ccnc3cc(OC)c(OC)cc23)c(F)c1 [LDC1267],effect of inhibitor on signaling induced by PDGFββ or insulin,"pAKT^S473 [1]; any of the doses tested, insulin 200 nM, PDGF-ββ 20 ng/ml",neither the signaling induced by PDGFββ or insulin are inhibited
same,effect of inhibitor on ISM1-induced pAKT signaling,"pAKT^S473 [1]; pre-treated for 30 min, ISM1 200 nM",inhibited
"CN(C)C(=N)N=C(N)N [Metformin, reference compound]",fasting blood glucose,DIO mice,lower
same,glucose tolerance (GTT),DIO mice,comparable effects on improving glucose tolerance
"C[C@]1(O)C[C@@H](c2nc(-c3ccc4ccc(-c5ccccc5)nc4c3)c3c(N)nccn32)C1 [OSI-906, reference compound]",insulin-induced glucose uptake in presence of inhibitor,human SGBS adipocytes; 50 nM OSI-906,significantly reduced
same,ISM1-induced glucose uptake in presence of inhibitor,"human SGBS adipocytes; 50 nM OSI-906, 100 nM ISM1",not affected
same,insulin signaling in presence of inhibitor,"pAKT^S473 [1]; 1000 nM OSI-906, insulin 100 nM",completely abolished
same,ISM1 signaling in presence of inhibitor,"pAKT^S473 [1]; even at 1000 nM OSI-906, ISM1 100 nM",intact
COc1ncc(-c2ccc3nccc(-c4ccnnc4)c3c2)cc1NS(=O)(=O)c1ccc(F)cc1F [Omipalisib],effect of inhibitor on pAKT^S473 phosphorylation induced by ISM1 and insulin,pAKT^S473 [1],completely block
Cc1ccc([N+](=O)[O-])cc1S(=O)(=O)N(C)/N=C/c1cnc2ccc(Br)cn12 [PIK],effect of inhibitor on pAKT^S473 phosphorylation induced by ISM1 and insulin,pAKT^S473 [1],completely block
CCC(=O)N1CCN(c2ccc(-n3c(=O)ccc4cnc5ccc(-c6cnc7ccccc7c6)cc5c43)cc2C(F)(F)F)CC1 [Torin],effect of inhibitor on pAKT^S473 phosphorylation induced by ISM1 and insulin,pAKT^S473 [1],fully ablates
"Thrombospondin-1: his-tagged mouse Thrombospondin-1, control protein containing thrombospondin domains [reference compound]",bioactivity on pAKT^S473 (western blot),pAKT^S473 [2]; 100 nM,no bioactivity
albumin [reference compound],glucose uptake (protein control),primary mouse adipocytes; 100 nM,no effect
insulin [reference compound],induction of glucose uptake,[3],~40 fold
same,glucose uptake induction compared with ISM1,primary mouse adipocytes; 1 h,higher glucose induction than ISM1
same,de novo lipogenesis,AML12 hepatocytes,significant induction of lipogenesis
same,"SREBP1c cleavage, FAS and ACC protein expression","SREBP1c, FAS, ACC","increased expression of pre-SREBP1c as well as the cleaved SREBP1, and increased protein expression of FAS and ACC"
same,IGF-R/IR phosphorylation,[4],induced IGF-R/IR phosphorylation
same,pAKT^T308 phosphorylation,[5],phosphorylation at pAKT^T308 at all time points
same,tyrosine phosphorylation of proteins,pTyr,induces phosphorylation of its receptors at larger molecular weights
same,concentration from which glucose uptake is increased,human SGBS adipocytes; doses ranging from 10 nM to 200 nM,20 nM
same,dose at which dose-dependent increase in pAKT^S473 phosphorylation starts,pAKT^S473 [2]; increasing doses,10 nM
same,GLUT4 in plasma membrane fraction (biochemical fractionation),GLUT4; 4 h,translocation of GLUT4 to the plasma membrane
same,"GLUT4 at cell surface (immunostaining, confocal microscopy)",GLUT4; compared with control cells,higher levels of GLUT4 at cell surface
same,srebp1c expression under basal conditions,srebp1c,induces srebp1c expression
